# Legend:
# Type in all cases: in vivo, human
# [1] = system: patients with non-ischemic HFREF; assay: BEST trial retrospective analysis: cumulative all-cause mortality, bucindolol vs placebo, by latent class subtype
# Source text: (§1) Methods: A total of 1121 patients with non-ischemic HFREF from the β-blocker Evaluation of Survival Trial were categorized according to 27 clinical features. See Tables 1 and 2 for the clinical features or information used. Latent class analysis was used to generate two latent class models, LCM A and B, Tables 3 and 4, respectively, to identify HFREF subtypes. LCM A consisted of features associated with HF pathogenesis, whereas LCM B consisted of markers of HF progression and severity. The Seattle Heart Failure Model (SHFM) Score was also calculated for all patients. Mortality, improvement in left ventricular ejection fraction (LVEF) defined as an increase in LVEF ≧5% and a final LVEF of […] after 12 months, and effect of bucindolol on both outcomes were compared across HFREF subtypes. Performance of models that included a combination of LCM subtypes and SHFM scores towards predicting mortality and LVEF response was estimated and subsequently validated using leave-one-out cross-validation and data from the Multicenter Oral Carvedilol Heart Failure Assessment (MOCHA) Trial.
# (§2) Methods: All patients had New York Heart Association (NYHA) class III or IV HFREF (LVEF ≦35%) and were randomized in a double-blind fashion to either bucindolol (a β-blocker) or placebo. Patients were considered ischemic if they had ≧70% obstruction in a major epicardial coronary artery by angiography or evidence of prior myocardial infarction and excluded from this analysis. The primary endpoint was cumulative all-cause mortality. Secondary endpoints were all-cause mortality at one year and LVEF response defined as improvement in LVEF ≧5% with a final LVEF of ≧35% as measured using multi-gated acquisition scan (MUGA). […] They were randomized to placebo, low (6.25 mg bid), medium (12.5 mg bid), or high-dose (25 mg bid) carvedilol. Death and LVEF improvement as measured by MUGA were secondary endpoints in the original MOCHA analysis. Mortality data was only available up to one year of follow-up in MOCHA.
# (§3) Association between latent class models and outcomes: Cox proportional-hazards models and the log-rank test were used to examine the associations between latent classes and cumulative all-cause mortality according to the intention-to-treat principle. These models were fit using the coxph and survfit functions from the survival library in the R statistical package. Logistic regression models were used for the one-year mortality and LVEF response outcomes. Interactions between latent classes and the treatment groups were used to estimate the response to treatment within each subtype.
# [2] = system: patients with non-ischemic HFREF; assay: BEST trial retrospective analysis: all-cause mortality at one year, bucindolol vs placebo, by latent class subtype
# Source text: as §1
# as §2, with “MOCHA. […]” for “MOCHA.”
# [3] = system: patients with non-ischemic HFREF; assay: BEST trial retrospective analysis: LVEF response (improvement in LVEF ≧5% with final LVEF ≧35%, MUGA), bucindolol vs placebo, by latent class subtype
# Source text: as §1, §2, §3
structure (smiles),measurement,setting,value
CC(C)(Cc1c[nH]c2ccccc12)NCC(O)COc1ccccc1C#N (stereo not shown) [bucindolol],reduction in cumulative all-cause mortality associated with bucindolol,[1]; LCM A subtype A1,no reduction
same,reduction in mortality with bucindolol,[1]; LCM A subtype A2 (discussion),no significant reduction
same,all-cause mortality with bucindolol,"[1]; LCM A subtype A6, only LCM A subtype (discussion)",decrease
same,"absolute risk reduction, cumulative all-cause mortality","[1]; LCM A subtype A6, p=0.01",10.2%
same,"relative risk reduction, cumulative all-cause mortality","[1]; LCM A subtype A6, p=0.01",42%
same,improvement in mortality associated with bucindolol,"[1]; LCM B subtype B2, p=0.01",significant improvement
same,overall effect of bucindolol,[1]; all non-ischemic BEST patients (discussion),not significant
same,patients in the bucindolol group died (cumulative all-cause mortality),"[1]; all non-ischemic BEST patients, 131/558",23.5%
same,"HR, cumulative all-cause mortality, bucindolol vs placebo","[1]; all non-ischemic BEST patients, 95% CI 0.65-1.04, p=0.1",0.82
same,effect of bucindolol on one-year mortality,"[2]; LCM A subtype A3, at 12 months, disappeared at subsequent follow-up",marginally significant difference
same,effect of bucindolol on one-year mortality,"[2]; LCM A subtype A6, did not reach statistical significance",trended towards benefit
same,effect of bucindolol on one-year mortality,"[2]; LCM B subtype B2, did not reach statistical significance",trended towards benefit
same,likelihood of LVEF response with bucindolol,[3]; LCM A subtype A1,no effect
same,likelihood of LVEF response with bucindolol,[3]; LCM A subtype A2,significant increase
same,absolute increase in likelihood of LVEF response,[3]; LCM A subtype A3,24.3%
same,likelihood of LVEF response with bucindolol,[3]; LCM A subtype A3,significant increase
same,relative increase in likelihood of LVEF response,[3]; LCM A subtype A3,156%
same,likelihood of LVEF response with bucindolol,[3]; LCM A subtype A5,significant increase
same,likelihood of LVEF response with bucindolol,[3]; LCM A subtype A6,significant increase
same,likelihood of improvement in LVEF,[3]; LCM B subtype B1,reached statistical significance
same,likelihood of improvement in LVEF,[3]; LCM B subtype B2,reached statistical significance
same,likelihood of improvement in LVEF,"[3]; all LCM B subtypes, relative and absolute terms",increased comparably

# Reference: patent publication US20130310436A1, “METHODS FOR PREDICTING RESPONSE TO BETA-BLOCKER THERAPY IN NON-ISCHEMIC HEART FAILURE PATIENTS” (The Regents of the University of Colorado, a body corporate, priority 2012, published 2013)
